Reference: patent US20170281779A1, “METHOD OF TREATING PATIENTS NON-RESPONSIVE TO PALONOSETRON” (Heron Therapeutics, Inc., priority 2013, published 2017)

Tests used:
5-HT3 receptors = molecular target: T1, 5-HT3 receptors (Homo sapiens, UniProt P46098); conditions: compared to first generation 5-HT3 receptor antagonists dolasetron, granisetron and ondansetron; cited from earlier work
T1 sequence (P46098 24-478): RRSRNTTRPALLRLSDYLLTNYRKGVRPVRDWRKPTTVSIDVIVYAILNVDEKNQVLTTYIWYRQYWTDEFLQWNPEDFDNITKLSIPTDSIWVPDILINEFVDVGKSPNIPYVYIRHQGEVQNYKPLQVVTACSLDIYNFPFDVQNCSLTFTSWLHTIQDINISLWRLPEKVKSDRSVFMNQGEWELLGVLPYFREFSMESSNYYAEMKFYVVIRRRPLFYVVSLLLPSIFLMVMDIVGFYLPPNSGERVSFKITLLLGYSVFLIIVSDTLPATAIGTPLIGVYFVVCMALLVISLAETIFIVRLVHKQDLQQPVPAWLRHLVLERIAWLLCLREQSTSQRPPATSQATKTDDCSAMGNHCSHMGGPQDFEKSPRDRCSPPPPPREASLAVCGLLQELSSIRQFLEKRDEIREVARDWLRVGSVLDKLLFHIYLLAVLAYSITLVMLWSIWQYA

[1] = cited from earlier work
[2] = test system: chemotherapy-induced nausea and vomiting (CINV); test: Clinical study of complete response (absence of emetic episodes) in chemotherapy patients; Cycle 1 palonosetron, Cycle 2 granisetron semi-solid delivery vehicle; format: in vivo, human; conditions: Cycle 1, palonosetron 0.25 mg intravenous
Protocol: As described in Example 2, the patients in the study were undergoing either a moderately emetogenic chemotherapy regimen or a highly emetogenic chemotherapy regimen. In a first cycle of the study, the patients were treated with (i) 5 mg of granisetron in a semi-solid drug delivery vehicle, administered subcutaneously; (ii) 10 mg of granisetron in a semi-solid drug delivery vehicle, administered subcutaneously; or (iii) palonosetron, 0.25 mg administered intravenously. Patients who received palonosetron in Cycle 1 and remained on study were re-randomized for treatment with 5 mg or 10 mg of granisetron, administered as comprised within a semi-solid drug delivery vehicle via subcutaneous injection of 250 mg vehicle or 500 mg vehicle.
In Cycle 1 of the study, 1395 patients receiving single doses of a moderately emetogenic chemotherapy (MEC) regimen or a highly emetogenic chemotherapy (HEC) regimen were randomized for treatment with one of three regimens: a semi-solid drug delivery vehicle comprising granisetron, administered subcutaneously to provide (i) 5 mg granisetron or (ii) 10 mg granisetron (via subcutaneous injection of 250 mg or 500 mg vehicle, respectively) or (iii) palonosetron, 0.25 mg intravenous. The palonosetron dose administered was the recommended dose of palonosetron (ALOXI®) for treatment of chemotherapy-induced nausea and vomiting in adults. Palonosetron, when administered intravenously at the above-dose, is indicated in adults for the prevention of both acute and delayed vomiting associated with initial and repeated courses of moderately emetogenic chemotherapy, and acute nausea and vomiting associated with initial and repeat courses of highly emetogenic chemotherapy.
Patients who received palonosetron in Cycle 1 and remained in the study were re-randomized for treatment in Cycle 2 with 5 mg or 10 mg granisetron administered subcutaneously as 250 mg or 500 mg, respectively, of the semi-solid drug delivery vehicle. […]

[3] = compared to first generation 5-HT3 receptor antagonists dolasetron, granisetron and ondansetron

For O=C1c2cccc3c2[C@H](CCC3)CN1[C@@H]1CN2CCC1CC2 [palonosetron], the “binding affinity to the 5-HT3 receptors” value (5-HT3 receptors) is given as “higher binding affinity”, the safety profile ([1]; as reported in the literature (Eisenberg et al. 2004)) is given as “excellent safety profile” and the half-life [1, 3] is given as “significantly longer half-life”. The potency [1, 3] was “higher potency”, the “overall (0-120 hour) failures” value ([2]; HEC patients (94/238)) was 39.5% and the “overall (0-120 hour) failures” value ([2]; MEC patients (100/208)) was 48.1%. For the same compound, the “overall (0-120 hour) failures” value ([2]; all 446 patients (MEC + HEC)) was 43.5%.
